Test results as given in patent US20230348358A1, “Serotonin Receptor Modulators” (Northeastern University, priority 2020, published 2023).
Entries after “also recorded” stand apart in the source; their conditions may differ. Read-outs that look alike come from different tables or passages of the source.

Experiments:
[1] = biological target: T1, 5HT2A receptors (Homo sapiens, UniProt P28223); test: 5-HT2A function in HEK cells over-expressing the receptor; format: cell-based
T1 construct: host or cells: HEK293, transient

[2] = biological target: T2, 5HT1A (Homo sapiens, UniProt P08908); test: 5HT1A function, Gαi cAMP signaling (CHO cells); format: cell-based
T2 sequence (P08908 1-422): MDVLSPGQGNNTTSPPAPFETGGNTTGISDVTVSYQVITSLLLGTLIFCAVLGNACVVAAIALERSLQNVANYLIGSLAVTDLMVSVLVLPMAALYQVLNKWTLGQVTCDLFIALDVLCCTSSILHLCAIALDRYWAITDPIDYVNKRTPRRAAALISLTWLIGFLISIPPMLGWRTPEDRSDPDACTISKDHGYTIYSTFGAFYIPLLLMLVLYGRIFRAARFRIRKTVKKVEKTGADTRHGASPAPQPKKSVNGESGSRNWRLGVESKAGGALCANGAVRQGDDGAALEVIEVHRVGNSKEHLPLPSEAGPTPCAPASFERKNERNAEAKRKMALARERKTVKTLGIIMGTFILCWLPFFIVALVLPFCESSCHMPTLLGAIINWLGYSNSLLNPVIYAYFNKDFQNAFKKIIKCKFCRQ

[3] = biological target: T3, D2 receptors (Homo sapiens, UniProt P14416); test: Affinity at dopamine D2 receptors; format: binding
T3 construct: host or cells: HEK293, transient

[4] = Plasma and brain concentrations by LC-MS/MS after systemic administration; format: in vivo, mouse; details: for concentration at 30 min / concentration at 60 min / concentration at 90 min: 3.0 mg/kg subcutaneous, mean (SEM); for concentration at 30 min: 30 min after injection; for concentration at 60 min: 60 min after injection; for concentration at 90 min: 90 min after injection
Text: (2S)-5-FPT is neurobehaviorally active after oral administration.

[5] = system: mice (C57BL/6J, FVB, C58/J); test: Locomotor behavior, compound on its own; format: in vivo, mouse; details: compound on its own or in the DOI assay; listed as (2S)-5-FPT, HCl
[6] = biological target: T4, 5HT2B receptors (Homo sapiens, UniProt P41595); test: 5HT2B functional assays; format: cell-based
T4 construct: host or cells: HEK293, transient

[7] = system: C58/J mice; test: Idiopathic stereotypic jumping; format: in vivo, mouse; details: dose-dependent; listed as (2S)-5-FPT, HCl
[8] = biological target: 5HT7 (Homo sapiens, UniProt P34969); test: Affinity (Ki) at 5HT7, HEK293 cells stably expressing 5HT7
[9] = system: FVB mice; test: Marble burying; details: mouse, in vivo
Protocol: For measurement of marble burying (FIG. 7), FVB mice were placed individually, for 10 min, in clean boxes (6 in. ×10 in. ×5 in.) containing 18 clear marbles atop fresh home-bedding. Marbles buried (i.e., marbles 50% covered with bedding) were calculated after the test session.

[10] = system: Fmr1 knockout and wild-type mice; test: c-Fos immunohistochemistry in brain of wild-type and Fmr1 knockout mice; format: in vivo, mouse; details: for c-Fos expression in the inferior colliculus: juvenile Fmr1 knockout mice, 30 seconds 120 dB alarm
Protocol: Brains are excised and post-fixed overnight in 4% paraformaldehyde, followed by 20% glycerol in TBS for at least 24 hrs. Coronal sections (40 μm) traversing regions of interest then be collected using a Leica CM1950 cryostat, and placed in cold TBS. c-Fos IHC is performed using free-floating IHC methods as have been previously described, but with a new primary antibody. A protocol with the Abcam [2H2] (ab208942) mouse monoclonal antibody has been recently optimized, which has essentially no cross-reactivity. An HRP-conjugated secondary antibody is used for visualization by the biotin-streptavidin technique using 3,3′-diaminobenzidine as the chromagen (Vectastain Elite, Vector Laboratories). Examination of c-Fos expression in frontal cortex, hypothalamus, nucleus accumbens, ventral tegmental area, amygdala, BNST, and hippocampus are conducted.
On the basis of the distribution of FMRP (Fragile X mental retardation protein) in the adult mouse brain and considering neural systems implicated in cognitive and neuropsychiatric symptoms (e.g., anxiety, sensory hypersensitivity, and social deficits) present in FXS and ASD, the effects of FPT were evaluated on c-Fos expression in the hippocampus (CA1, CA3, and dentate gyrus (DG)), the basolateral amygdala (ventral (BLAv), posterior (BLAp), and anterior (BLAa)), the somatosensory (SS) cortex, the hypothalamus (periventricular hypothalamic nucleus, intermediate (PVi), posterior hypothalamic nucleus (PH), and dorsomedial nucleus of the hypothalamus (DMH)), the paraventricular nucleus of the thalamus (PVT), and the ventral retrosplenial area (RSPv). Shown in FIG. 15A and FIG. 15B are results from analyses of c-Fos expression in CA3 and the BLAa, respectively. There were no main effects of the independent variables on c-Fos in CA3; however, there was a significant treatment effect in BLAa (F(1, 12)=14.22, P=0.0027). […] The effect was large, but the difference was not statistically significant (P=0.0871, d=1.54).

[11] = biological target: T1, 5HT2A receptors; test: biochemical; format: binding
[12] = system: 50 CNS/peripheral sites; test: NIMH PDSP / NIDA evaluation at 50 CNS/peripheral sites; format: binding
[13] = system: C57BL/6J mice; test: DOI-elicited head-twitch response (HTR); format: in vivo, mouse
Text: The 5-HT2A receptor is a predominant 5-HT receptor in the cortex, and serves important excitation modulation functions on glutamate pyramidal and GABA neurons.

[14] = system: C57BI/6J mice; test: MK-801 elicited stereotypic rotations and hyperlocomotion; format: in vivo, mouse
Text: Regarding glutamate neurotransmission in stereotypy, the NMDA receptor antagonist, MK-801, characteristically elicits stereotypic rotations that appear to mimic monogenetic stereotypy observed in Fmr1 KO mice. Furthermore, mutations and autoantibodies of the NMDA glutamate receptor that decrease its function are causally linked to ASD, intellectual disabilities, and psychiatric symptoms in humans.

[15] = mouse, brain, read-out: Brain concentration
[16] = mouse, plasma, read-out: Plasma concentration

Chain of 5HT7 (P34969 whole entry): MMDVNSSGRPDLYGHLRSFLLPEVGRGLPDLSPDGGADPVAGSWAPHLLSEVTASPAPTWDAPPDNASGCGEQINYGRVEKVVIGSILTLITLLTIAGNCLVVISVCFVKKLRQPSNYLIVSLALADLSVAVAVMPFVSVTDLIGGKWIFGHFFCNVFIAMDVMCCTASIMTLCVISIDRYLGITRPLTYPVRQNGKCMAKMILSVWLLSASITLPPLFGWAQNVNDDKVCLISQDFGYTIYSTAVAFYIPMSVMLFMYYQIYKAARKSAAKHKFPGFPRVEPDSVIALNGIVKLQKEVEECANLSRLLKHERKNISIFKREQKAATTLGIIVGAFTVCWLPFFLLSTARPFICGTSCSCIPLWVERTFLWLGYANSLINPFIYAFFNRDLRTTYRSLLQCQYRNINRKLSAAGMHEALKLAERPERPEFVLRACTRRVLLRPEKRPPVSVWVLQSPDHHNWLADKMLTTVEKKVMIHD
T1 sequence (P28223 whole entry): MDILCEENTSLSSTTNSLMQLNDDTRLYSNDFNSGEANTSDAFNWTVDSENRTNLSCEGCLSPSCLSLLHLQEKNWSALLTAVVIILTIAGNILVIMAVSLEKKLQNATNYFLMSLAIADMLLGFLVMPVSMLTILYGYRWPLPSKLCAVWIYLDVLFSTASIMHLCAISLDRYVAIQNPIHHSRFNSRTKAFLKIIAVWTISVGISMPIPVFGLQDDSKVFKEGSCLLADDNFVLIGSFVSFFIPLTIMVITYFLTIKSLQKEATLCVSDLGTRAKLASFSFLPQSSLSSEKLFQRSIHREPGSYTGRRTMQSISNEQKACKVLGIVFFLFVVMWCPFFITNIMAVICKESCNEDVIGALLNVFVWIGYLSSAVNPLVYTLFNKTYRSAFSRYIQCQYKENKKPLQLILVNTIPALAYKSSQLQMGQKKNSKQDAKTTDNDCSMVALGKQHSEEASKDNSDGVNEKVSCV
T4 sequence (P41595 whole entry): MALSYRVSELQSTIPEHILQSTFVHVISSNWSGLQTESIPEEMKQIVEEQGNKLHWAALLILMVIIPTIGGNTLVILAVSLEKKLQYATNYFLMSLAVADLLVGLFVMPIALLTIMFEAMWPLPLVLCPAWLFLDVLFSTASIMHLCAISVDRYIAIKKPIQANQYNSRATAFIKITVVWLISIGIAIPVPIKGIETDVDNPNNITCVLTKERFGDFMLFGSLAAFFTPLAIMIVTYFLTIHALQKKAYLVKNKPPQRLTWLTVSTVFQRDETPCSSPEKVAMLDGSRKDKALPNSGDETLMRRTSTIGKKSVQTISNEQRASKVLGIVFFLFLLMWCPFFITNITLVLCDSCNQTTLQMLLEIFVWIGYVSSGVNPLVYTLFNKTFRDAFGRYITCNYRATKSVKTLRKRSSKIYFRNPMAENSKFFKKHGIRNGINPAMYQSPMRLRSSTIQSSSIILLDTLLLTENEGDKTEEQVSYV
T3 sequence (P14416 whole entry): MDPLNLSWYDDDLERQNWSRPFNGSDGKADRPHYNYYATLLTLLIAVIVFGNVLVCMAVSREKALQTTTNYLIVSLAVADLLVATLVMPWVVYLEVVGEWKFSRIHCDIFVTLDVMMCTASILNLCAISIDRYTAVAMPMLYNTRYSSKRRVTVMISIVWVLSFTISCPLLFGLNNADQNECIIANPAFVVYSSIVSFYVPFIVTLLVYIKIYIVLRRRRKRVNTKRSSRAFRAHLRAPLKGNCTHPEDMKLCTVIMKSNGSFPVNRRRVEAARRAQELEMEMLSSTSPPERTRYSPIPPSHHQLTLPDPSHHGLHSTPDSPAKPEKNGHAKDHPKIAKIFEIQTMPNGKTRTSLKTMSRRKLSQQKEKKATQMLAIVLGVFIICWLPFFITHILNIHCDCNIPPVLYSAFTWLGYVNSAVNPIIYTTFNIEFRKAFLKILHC

## CN(C)[C@H]1CCc2c(cccc2-c2ccccc2F)C1.Cl [(S)-5-FPT, (2S)-5-(2-fluorophenyl)-N,N-dimethyl-1,2,3,4-tetrahydronaphthalen-2-amine HCl]
[1]
  Function at 5-HT2A receptors: weak partial agonist activity
[2]
  Function at 5HT1A: Partial agonist
[3]
  Affinity at D2 receptors: poor affinity
[4]; [15]
  concentration at 30 min: 1780 ng/g
  concentration at 60 min: 2160 ng/g
  concentration at 90 min: 1460 ng/g
[4]; mouse, in vivo
  Blood-brain barrier penetration: readily crosses the blood-brain barrier
[4]; [16]
  concentration at 30 min: 114 ng/mL
  concentration at 60 min: 118 ng/mL
  concentration at 90 min: 70 ng/mL
[4]; plasma levels lower than brain
  Peripheral clearance: rapidly cleared in the periphery
[5]
  Locomotor behavior: did not alter locomotion; also recorded: without altering locomotor behavior on its own
[6]
  5HT2B functional activity: devoid of 5HT2B activity up to 100 μM
[7]
  Stereotypic jumping: potently eliminated stereotypic jumping; also recorded: greater efficacy in this model than the recently reported mGluR5 negative allosteric modulator, GRN-529
[8]
  5-HT7 affinity of (S)-enantiomer over (R)-enantiomer: about 80 times
[8]; Affinity Ki ± SEM at 5HT7
  Ki: 5 nM
[8]; read-out: Affinity Ki ± SEM at 5HT7, HCl
  Ki: 5.3 ± 2 nM
[9]
  Marble burying (repetitive behavior): reduces or eliminates repetitive behavior in all models
[10]; WT and KO mice
  c-Fos expression in CA3 region of the hippocampus: did not significantly increase c-Fos expression
[10]
  c-Fos expression in the inferior colliculus: did not affect the number of c-Fos positive cells
[10]; listed as FPT, HCl
  c-Fos expression in the inferior colliculus: no effect
[10]; mouse, in vivo
  c-Fos expression in other brain regions: did not significantly alter c-Fos expression in any other brain region examined
[11]
  Ki: ~900 nM
[12]
  Activity at 50 CNS/peripheral sites: without activity at 50 CNS/peripheral sites
[13]; 5.6 mg/kg, 3 hours post-administration
  DOI HTR at 3 hours post-administration: did not block the DOI HTR
[13]; 5.6 mg/kg, post-administration
  Time for which attenuation of the DOI HTR remained significant: up to 2 hours
[13]; mouse, in vivo, listed as (2S)-5-FPT, HCl
  DOI-elicited HTR: dose-dependently attenuated the DOI-elicited HTR; also recorded: significantly attenuated
[13]; oral administration
  Oral activity: orally active
[14]; 5.6 mg/kg
  Hyperlocomotion caused by MK-801: significantly decreased hyperlocomotion
  MK-801 elicited stereotypical rotations: significantly reduced stereotypical rotations
[14]; without MK-801
  Stereotypic rotational behavior, compound alone: neither (2S)-5-FPT nor AMP caused stereotypic rotational behavior
